Results reported in patent publication US20240381872A1, “SUBSTITUTED 2,3-DIHYDRO[1,3]THIAZOLO[4,5-B]PYRIDINES, SALTS THEREOF AND THEIR USE AS HERBICIDALLY ACTIVE SUBSTANCES” (BAYER AKTIENGESELLSCHAFT, priority 2021, published 2024).

Legend:
Format in all cases: in vivo
[1] = system: Echinochloa crus-galli (ECHCG); test: Herbicidal pre-emergence action, section C (Table C3); details: visual grading after ca. 3 weeks vs untreated controls
In short: (§1)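 Pre-emergence, sandy loam. WP/EC formulations applied to covering soil surface, aqueous, + 0.5% additive, 600 l water/ha. Greenhouse, optimum growth. Visual % damage vs untreated, ca. 3 wk.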

[2] = system: Lolium rigidum (LOLRI); test: Herbicidal pre-emergence action, section C (Table C5); details: visual grading after ca. 3 weeks; for pest or weed control at 80 g/ha: Lolium rigidum, pre-emergence, 504 h, application rate 80 g/ha, read-out: pre-emergence activity against LOLRI in %; for pre-emergence activity against LOLRI in %: application rate 320 g/ha
Description: (§2) Seeds of mono- and dicotyledonous weed plants and crop plants were sown, in plastic or organic planting pots, in sandy loam and covered with soil. The compounds according to the invention, formulated in the form of wettable powders (WP) or as emulsifiable concentrates (EC), were applied to the surface of the covering soil as aqueous suspension or emulsion, with the addition of 0.5% of an additive, at an application rate of 600 l of water/ha (converted). Following treatment, the pots were placed in a greenhouse and kept under optimum growth conditions for the test plants. The visual grading of the damage to the test plants was carried out after ca. 3 weeks in comparison to untreated controls (herbicidal effect in percent (%): 100% effect=plants have died off, 0% effect=as control plants).

[3] = system: Polygonum convolvulus (POLCO); test: Herbicidal pre-emergence action, section C (Table C7); details: visual grading after ca. 3 weeks; for pest or weed control at 320 g/ha: Fallopia convolvulus, pre-emergence, 504 h, application rate 320 g/ha, read-out: pre-emergence activity against POLCO in %; for pre-emergence activity against POLCO in %: application rate 80 g/ha
In short: as §1

[4] = system: Veronica persica (VERPE); test: Herbicidal pre-emergence action, section C (Table C10); details: Veronica persica, pre-emergence, 504 h; application rate 320 g/ha; visual grading after ca. 3 weeks; read-out: pre-emergence activity against VERPE in %
Description: as §2

[5] = system: Echinochloa crus-galli (ECHCG); test: Herbicidal post-emergence action, section E (Table E5); details: application rate 320 g/ha, visual assessment ca. 3 weeks after spraying; for pest or weed control at 320 g/ha: Echinochloa crus-galli, 504 h, read-out: post-emergence activity against ECHCG in %
Description: Seeds of mono- and dicotyledonous weed plants and crop plants were sown, in plastic or organic planting pots, in sandy loam, covered with soil and grown in a greenhouse under controlled growth conditions. 2 to 3 weeks after sowing, the test plants were sprayed in the single-leaf stage. The compounds according to the invention, formulated in form of wettable powders (WP) or as emulsifiable concentrates (EC), were sprayed onto the green plant parts as aqueous suspension or emulsion, with the addition of 0.5% of an additive, at an application rate of 600 l of water/ha (converted). The test plants were placed in the greenhouse for ca. 3 weeks under optimum growth conditions, and then the effect of the preparations was assessed visually in comparison with untreated controls (herbicidal effect in percent (%): 100% effect=plants have died off, 0% effect=as control plants).

[6] = system: Veronica persica (VERPE); test: Herbicidal post-emergence action, section E (Table E9); details: visual assessment ca. 3 weeks after spraying; for pest or weed control at 320 g/ha: Veronica persica, 504 h, application rate 320 g/ha, read-out: post-emergence activity against VERPE in %
In short: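 Post-emergence greenhouse spray onto single-leaf-stage plants raised in sandy loam, using WP or EC formulations with 0.5% additive at 600 l water/ha. Effect is the visual percentage damage relative to untreated controls after about 3 weeks.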

[7] = system: Alopecurus myosuroides (ALOMY); test: Herbicidal pre-emergence action, section A (Table A2); details: application rate 320 g/ha, visual grading after ca. 3 weeks vs untreated controls
In short: (§3)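 Seeds sown in sandy loam and covered with soil; compounds formulated as WP or EC were applied to the soil surface as aqueous suspension or emulsion with 0.5% additive at 600 l water/ha. Pots kept in greenhouse under optimum conditions; damage scored visually after ca. 3 weeks versus untreated controls (0–100%).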

[8] = system: Echinochloa crus-galli (ECHCG); test: Herbicidal pre-emergence action, section A (Table A3); details: visual grading after ca. 3 weeks vs untreated controls
In short: as §3

[9] = system: Kochia scoparia (KCHSC); test: Herbicidal pre-emergence action, section A (Table A4); details: visual grading after ca. 3 weeks vs untreated controls; for pre-emergence activity against KCHSC in %: application rate 320 g/ha
In short: as §3

[10] = system: Stellaria media (STEME); test: Herbicidal pre-emergence action, section A (Table A9)
In short: as §3

[11] = system: Veronica persica (VERPE); test: Herbicidal pre-emergence action, section A (Table A10); details: application rate 1280 g/ha
In short: as §3

[12] = system: Poa annua (POAAN); test: Herbicidal post-emergence action, section B (Table B7); details: application rate 320 g/ha, visual rating about 3 weeks after treatment vs untreated controls
In short: (§4)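 Activity was scored visually as percent of untreated controls about 3 weeks after spraying, where 100% meant dead plants and 0% meant no difference. Plants were treated at the one-leaf stage with WP or EC formulations in water containing 0.5% additive, applied at 600 liters per hectare.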

[13] = system: Setaria viridis (SETVI); test: Herbicidal post-emergence action, section B (Table B8); details: application rate 1280 g/ha, visual rating about 3 weeks after treatment vs untreated controls
In short: as §4

[14] = system: Veronica persica (VERPE); test: Herbicidal post-emergence action, section B (Table B10); details: visual rating about 3 weeks after treatment vs untreated controls
In short: as §4

SMILES | pest or weed control at 80 g/ha [2] | pest or weed control at 320 g/ha [3] | pest or weed control at 320 g/ha [4] | pest or weed control at 320 g/ha [5] | pest or weed control at 320 g/ha [6] | pre-emergence activity against KCHSC in % [9] | pre-emergence activity against VERPE in % [11] | post-emergence activity against POAAN in % [12] | pre-emergence activity against LOLRI in % [2] | pre-emergence activity against POLCO in % [3] | post-emergence activity against ECHCG in % [5] | other results
Cc1cc2c(nc1-c1ccccc1Cl)NCS2 [Example I-049, 5-(2-chlorophenyl)-6-methyl-2,3-dihydro[1,3]thiazolo[4,5-b]pyridine] | 100% | 80% | 80% | 80% | 80% |  |  |  |  |  |  | pest or weed control at 80 g/ha ([1]; Echinochloa crus-galli, pre-emergence, 504 h, application rate 80 g/ha, read-out: pre-emergence activity against ECHCG in %): 100%
Cc1cc2c(nc1-c1ccccc1F)N(C(=O)C13CCCC1C(Cl)=NO3)CS2 (centres unmarked) [Example I-104] |  |  |  |  |  | 90% | 90% | 90% | 100% | 80% | 80% | pre-emergence activity against ALOMY in % [7]: 90%; pre-emergence activity against ECHCG in % ([8]; application rate 320 g/ha): 100%; pre-emergence activity against STEME in % ([10]; application rate 320 g/ha): 90%; post-emergence activity against SETVI in % [13]: 90%; post-emergence activity against VERPE in % ([14]; application rate 320 g/ha): 90%; pre-emergence activity against ECHCG in % ([1]; application rate 80 g/ha): 100%; post-emergence activity against VERPE in % ([6]; application rate 80 g/ha): 80%
Cc1cc2c(nc1-c1cccc(C)c1F)NCS2 [Example I-113] |  |  |  |  |  | 90% | 90% | 90% | 90% | 90% | 80% | pre-emergence activity against ECHCG in % ([8]; application rate 1280 g/ha): 100%; pre-emergence activity against STEME in % ([10]; application rate 1280 g/ha): 90%; pre-emergence activity against ECHCG in % ([1]; application rate 320 g/ha): 100%
CCOCCS(=O)(=O)N1C[S+]([O-])c2cc(C)c(-c3ccccc3F)nc21 (centres unmarked) [Example I-127] | 80% | 90% | 90% | 90% | 90% |  |  |  |  |  |  | pest or weed control at 320 g/ha ([7]; Alopecurus myosuroides, pre-emergence, 504 h, read-out: pre-emergence activity against ALOMY in %): 100%; pest or weed control at 320 g/ha ([8]; Echinochloa crus-galli, pre-emergence, 504 h, application rate 320 g/ha, read-out: pre-emergence activity against ECHCG in %): 100%; pest or weed control at 1280 g/ha ([9]; Bassia scoparia, pre-emergence, 504 h, application rate 1280 g/ha, read-out: pre-emergence activity against KCHSC in %): 100%; pest or weed control at 320 g/ha ([10]; Stellaria media, 504 h, application rate 320 g/ha, read-out: pre-emergence activity against STEME in %): 90%; pest or weed control at 1280 g/ha ([11]; Veronica persica, 504 h, read-out: pre-emergence activity against VERPE in %): 90%; pest or weed control at 320 g/ha ([12]; Poa annua, post-emergence, 504 h, read-out: post-emergence activity against POAAN in %): 90%; pest or weed control at 1280 g/ha ([13]; Setaria viridis, post-emergence, 504 h, read-out: post-emergence activity against SETVI in %): 90%; pest or weed control at 1280 g/ha ([14]; Veronica persica, post-emergence, 504 h, application rate 1280 g/ha, read-out: post-emergence activity against VERPE in %): 90%
